Assay results: patent US20110171193A1, “COMPOSITIONS AND METHODS FOR TREATING PULMONARY HYPERTENSION” (THE BOARD OF TRUSTEES OF THE UNIVERSITY OF ILLINOIS, priority 2008, published 2011)

Experiments:
Cav1−/− mice [1] = experiment: RVSP in Cav1−/− mice with PH; assay type: in vivo, mouse; conditions: 8 month old Cav1−/− mice; 1 mg/ml in drinking water for 5 wk
Protocol: RVSP was determined as follows. Briefly, following anesthesia, mice were prepared for catheterization. A 1.4 F pressure transducer catheter (Millar Instruments) was carefully inserted via the right external jugular vein into the right ventricle to obtain measurements of RVSP using the Acknowledge software (Biopac Systems, Inc.). To determine lung vascular resistance, mice were anesthetized and prepared for perfusion. Pulmonary arterial (Ppa) and venous (Pv) pressures were monitored continuously through the pulmonary arterial and left atrial cannula, which were connected to a pressure transducer. […] Ppa was measured at steady-state and was plotted against the flow, which was measured by weighing the effluent collected over a one-minute period. […]
To determine whether pharmacological inhibition of eNOS in Cav1^−/− mice can reverse PH, we administered N-Nitro-L-Arginine Methyl Ester (L-NAME), a NOS inhibitor, to Cav1^−/− mice following onset of PH. […] Data are expressed as mean±SD (n=5-7). *, P=0.023 WT versus Cav1^−/−;**, P=0.015 Cav-L versus Cav1^−/−; #, P>0.5 Cav-D versus Cav1^−/−. […] Data are expressed as mean±SD (n=5-7). *, P=0.002 WT versus Cav1^−/−; **, P=0.013 Cav-L versus Cav1^−/−; #, P=0.8 Cav-D versus Cav1^−/−.
Hemodynamic Measurements. RVSP was determined with a 1.4 F pressure transducer catheter (Millar Instruments) and the Acknowledge software (Biopac Systems, Inc.). […]

Cav1−/− mice [2] = experiment: Lung histology and muscularized distal pulmonary arteries in Cav1−/− mice; assay type: in vivo, mouse; conditions: 8 month old Cav1−/− mice; 1 mg/ml in drinking water for 5 wk
Protocol: Following PBS perfusion, the lung tissues were fixed for 5 min by instillation of 10% PBS-buffered formalin through trachea catheterization at a transpulmonary pressure of 15 cm H2O. After tracheal ligation, harvested lungs were fixed with 10% PBS-buffered formalin overnight at […] with agitation. After paraffin processing, the tissues were cut into semithin 4 to […] thick, and stained with either H & E for histological analysis or an antibody against nitrotyrosine (Upstate Biotechnology) for immunohistochemistry. Immunostaining was developed with a Vectastain ABC kit (Vector Laboratories). Histology and Imaging. Lung tissues were fixed and processed for H & E staining and immunofluorescent staining. for 5 min by instillation of 10% PBS-buffered formalin through trachea catheterization at a transpulmonary pressure of 15 cm H2O, and then overnight at 4° C. with agitation. After paraffin processing, the tissues were cut into semi-thin 4 to […] thick, and stained with H & E for histological analysis. For immunofluorescent staining, antigen retrieval was performed by incubating the slides in 10 mM sodium citrate (pH 6.0) at 95° C. for 10 min. […] The anti-a-SMA-positive pulmonary arterial vessels per field (200×) were counted based on the diameter (<40 μm versus>40 μm). Twenty fields per section were randomly identified and counted. […]

purified PKG-1 = target: T1, purified PKG-1 (Bos taurus, UniProt P00516); experiment: In vitro kinase assay of purified PKG-1 after peroxynitrite or DETA NONOate; assay type: biochemical; conditions: peroxynitrite at indicated concentrations, 14 min at RT
T1 construct: purchased Promega
T1 sequence (P00516 1-671): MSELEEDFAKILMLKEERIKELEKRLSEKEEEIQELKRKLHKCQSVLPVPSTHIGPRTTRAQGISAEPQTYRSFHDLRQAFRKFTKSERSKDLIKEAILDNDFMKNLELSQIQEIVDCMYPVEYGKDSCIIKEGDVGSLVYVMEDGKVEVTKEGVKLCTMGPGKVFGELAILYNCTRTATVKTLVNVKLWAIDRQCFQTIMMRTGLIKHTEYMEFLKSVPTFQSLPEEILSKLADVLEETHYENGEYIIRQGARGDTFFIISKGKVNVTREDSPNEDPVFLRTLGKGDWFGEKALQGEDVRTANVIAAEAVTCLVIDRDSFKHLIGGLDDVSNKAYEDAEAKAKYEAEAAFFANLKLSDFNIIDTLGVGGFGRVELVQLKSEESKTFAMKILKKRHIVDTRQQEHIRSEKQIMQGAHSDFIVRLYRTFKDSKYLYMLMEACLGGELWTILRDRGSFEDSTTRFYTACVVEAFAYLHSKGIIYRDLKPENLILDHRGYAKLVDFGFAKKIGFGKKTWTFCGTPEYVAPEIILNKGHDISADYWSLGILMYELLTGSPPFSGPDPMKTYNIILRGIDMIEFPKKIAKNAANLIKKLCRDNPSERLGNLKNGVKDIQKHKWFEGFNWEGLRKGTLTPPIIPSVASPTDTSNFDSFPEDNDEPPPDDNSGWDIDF
Protocol: PKG Kinase Assay. In vitro activity of PKG was determined by measuring the transfer of the [g-^32P] phosphate group of ATP to the specific PKG substrate, BPDEtide (Calbiochem) in the absence or presence of exogenous 2.5 mM cGMP as described in Example 13. PKG activity is expressed as picmoles of ^32P incorporated into PKG substrate per min per microgram protein.
(§1) To address the role of peroxynitrite in the mechanism of the observed impairment of PKG activity, we treated human pulmonary artery smooth muscle cells with 3-morpholinosydnonimine (SIN-1), the superoxide and NO donor that forms peroxynitrite simultaneously (30). […] FIG. 9A relates to dose-dependent impairment of PKG activity by peroxynitrite. Purified […] (Promega) was incubated with peroxynitrite at indicated concentrations for 14 min at RT or with DETA NONOate (NONOate) for 30 min in dark at RT. Kinase activity was then assayed. Data is expressed mean+/−SD (n=3). *, P<0.05 versus control (0 μM). FIG. 9B relates to screening of PKG-1a mutants with in vitro kinase assay. At 48 hr post-transfection, myc-tagged WT and PKG-1a mutants were immunoprecipitated with anti-myc beads and aliquoted for incubation with either peroxynitrite (100 μM) or the same amount of 0.1 N NaOH only (CTL). […] PKG activity was expressed as pmoles/min/μg cell lysates. […] Data are expressed as mean±SD (n=3), *, P<0.05 versus either PKG-1a mutant. […]

human PKG-1a = experiment: Myc-tagged PKG-1a tyrosine mutants treated with peroxynitrite: kinase assay and tyrosine nitration; assay type: biochemical; conditions: in contrast to wildtype PKG-1
Protocol: Identification of Nitrated Tyrosine Residues of PKG-1a. Tyrosine residue was mutated to Phenylalanine by site-directed mutagenesis following manufacture's instruction (Stratagene). Myc-tagged wild-type and mutant PKG-1a were overexpressed in human lung microvascular endothelial cells and cell lysates were then immunoprecipitated with anti-Myc for 4 hr at RT. […] Following 14 min incubation in 50 mM K2HPO4 buffer at RT, kinase activity was then measured as described above.
as §1, with “assay.” for “assay. At 48 hr post-transfection, myc-tagged WT and PKG-1a mutants were immunoprecipitated with anti-myc beads and aliquoted for incubation with either peroxynitrite (100 μM) or the same amount of 0.1 N NaOH only (CTL).”

SMILES | RVSP (Cav1−/− mice [1]) | Number of muscularized distal pulmonary arteries (Cav1−/− mice [2]) | PKG activity (purified PKG-1) | PKG activity following peroxynitrite treatment (human PKG-1a; PKG-1a with mutation of tyrosine residue 345 or 549, peroxynitrite 100 μM) | Tyrosine nitration following peroxynitrite treatment (human PKG-1a; PKG-1 mutants (tyrosine 345 or 549), peroxynitrite 250 μM, 14 min at RT)
COC(=O)[C@H](N)CCCN=C(N)N[N+](=O)[O-] [D-NAME] | no effect | no effect |  |  | 
O=NOO [peroxynitrite] |  |  | decreased PKG activity in a concentration-dependent manner | no impairment of PKG activity | diminished tyrosine nitration
